Drawing on patent publication US6380218B1, “Nicotinamide derivatives” (Pfizer Inc, priority 1997, dated 2002), this text covers melting point for 41 molecules.

Usually melting point stands for the temperature, or range, at which the solid turns liquid. Consider `CCC(O)(CC)c1ccc(CNC(=O)c2cccnc2Oc2ccc(F)cc2)s1` [Example 80, N-[5-(1-Ethyl-1-hydroxy-propyl)-thiophen-2-ylmethyl]-2-(4-fluoro-phenoxy)-nicotinamide], for which the melting point fell in the range of 95 to 97 °C.

Regarding `CC(C)(O)c1sc(CNC(=O)c2cccnc2Oc2ccc(F)cc2)cc1Cl` [Example 81, N-[4-Chloro-5-(1-hydroxy-1-methyl-ethyl]-thiophen-2-ylmethyl]-2-(4-fluoro-phenoxy)-nicotinamide], the melting point fell in the range of 115 to 117 °C.

`CC(NC(=O)c1cccnc1Oc1ccc(F)cc1)c1ccc(Br)cc1` (centres unmarked) [Example 82, N-[1-(4-Bromo-phenyl)-ethyl]-2-(4-fluoro-phenoxy)-nicotinamide]: the melting point was in the range of 120 to 122 °C.

Molecule `CC(C)(O)c1cc(Cl)c(CNC(=O)c2cccnc2Oc2ccc(F)cc2)s1` [Example 84, N-[3-Chloro-5-(1-hydroxy-1-methyl-ethyl)-thiophen-2-ylmethyl]-2-(4-fluoro-phenoxy)-nicotinamide] showed a melting point of 85 to 87 °C.

Turning to `O=C(NCc1ccc(C2(O)CCC2)cc1)c1cccnc1Oc1ccc(F)cc1` [Example 85, 2-(4-Fluoro-phenoxy)-N-[4-(1-hydroxy-cyclobutyl)-benzyl]-nicotinamide], the melting point is 95 to 97 °C.

The molecule `CC(C)(O)c1ccc(CNC(=O)c2cccnc2Oc2ccc(F)cc2)c(Cl)c1` [Example 86, N-[2-Chloro-4-(1-hydroxy-1-methyl-ethyl)-benzyl]-2-(4-fluoro-phenoxy)-nicotinamide] had a melting point of 102 to 104 °C.

`O=C(NCc1ccc(N2CCC2)cc1)c1cccnc1Oc1ccc(F)cc1` [Example 87, N-(4-Azetidin-1-yl-benzyl)-2-(4-fluoro-phenoxy)-nicotinamide]: the melting point fell in the range of 128 to 129 °C.

Regarding `O=C(NCc1ccc(N2CC(O)C2)cc1)c1cccnc1Oc1ccc(F)cc1` [Example 88, 2-(4-Fluoro-phenoxy)-N-[4-(3-hydroxy-azetidin-1-yl)-benzyl]-nicotinamide], the melting point was 157 to 159 °C.

`O=C(NCc1ccc(N2CCCC2)cc1)c1cccnc1Oc1ccc(F)cc1` [Example 89, 2-(4-Fluoro-phenoxy)-N-(4-pyrrolidin-1-yl-benzyl)-nicotinamide] displayed a melting point of 127 to 128 °C.

For `O=C(NCc1ccc(N2CCCCC2)cc1)c1cccnc1Oc1ccc(F)cc1` [Example 90, 2-(4-Fluoro-phenoxy)-N-(4-piperidin-1-yl-benzyl)-nicotinamide], the melting point lay within 118 to 119 °C.

In the case of `O=C(NCc1ccc(N2CCOCC2)cc1)c1cccnc1Oc1ccc(F)cc1` [Example 91, 2-(4-Fluoro-phenoxy)-N-(4-morpholin-4-yl-benzyl)-nicotinamide], the melting point fell in the range of 163 to 165 °C.

On to `O=C1CCN(c2ccc(CNC(=O)c3cccnc3Oc3ccc(F)cc3)cc2)CC1` [Example 92, 2-(4-Fluoro-phenoxy)-N-[4-(4-oxo-piperidin-1-yl)-benzyl]-nicotinamide], for which the melting point fell in the range of 138 to 139 °C.

As for `CC1(c2ccc(CNC(=O)c3cccnc3Oc3ccc(F)cc3)cc2)OCCO1` [Example 94, 2-(4-Fluoro-phenoxy)-N-[4-(2-methyl-[1,3]dioxolan-2-yl)-benzyl]-nicotinamide], the melting point fell in the range of 78 to 80 °C.

The molecule `O=C(NCc1sc(Cl)cc1Cl)c1cccnc1Oc1ccc(F)cc1` [Example 97, N-(3,5-Dichloro-thiophen-2ylmethyl)-2-(4-fluoro-phenoxy)-nicotinamide] gave a melting point of 132 to 134 °C.

For `O=C(NCC1CC1)c1cccnc1Oc1cncc(Cl)c1` [Example 98, 2-(5-Chloro-pyridin-3-yloxy)-N-cyclopropylmethyl-nicotinamide], the melting point lay in the range of 105 to 107 °C.

`CC(C)(O)c1ccc(CNC(=O)c2cccnc2Oc2ccc(F)c(C#N)c2)c(F)c1` [Example 99, 2-(3-Cyano-4-fluoro-phenoxy)-N-[2-fluoro4-(1-hydroxy-1-methyl-ethyl)-benzyl]-nicotinamide] returned a melting point of 157 to 159 °C.

`O=C(NCc1ccc(O)cc1)c1cccnc1Oc1ccc(F)cc1` [Example 103, 2-(4-Fluoro-phenoxy)-N-(4-hydroxy-benzyl)-nicotinamide] displayed a melting point of 185 to 187 °C.

As for `O=C(NCc1ccc(O)cc1)c1cccnc1Oc1cccnc1` [Example 104, N-(4-Hydroxy-benzyl)-2-(pyridin-3yloxy)-nicotinamide], the melting point fell in the range of 156 to 158 °C.

Turning to `O=C1Cc2cc(CNC(=O)c3cccnc3Oc3cccc([N+](=O)[O-])c3)ccc2N1` [Example 106, 2-(3-Nitro-phenoxy)-N-(2-oxo-2,3-dihydro-1H-indol-5-ylmethyl)-nicotinamide], the melting point fell in the range of 190 to 192 °C.

On to `CC(C)(O)c1ccc(CNC(=O)c2cccnc2Oc2cccc([N+](=O)[O-])c2)cc1` [Example 107, N-[4-(1-Hydroxy-1-methyl-ethyl)-benzyl]-2-(3-nitro-phenoxy)-nicotinamide], for which the melting point lay within 43 to 45 °C.

The molecule `Cc1cc(CNC(=O)c2cccnc2Oc2cccc([N+](=O)[O-])c2)cc(C)c1O` [Example 108, N-(4-Hydroxy-3,5-dimethyl-benzyl)-2-(3-nitro-phenoxy)-nicotinamide] showed a melting point of 128 to 130 °C.

With `O=C(NCc1ccc(Cl)s1)c1cccnc1Oc1cccc([N+](=O)[O-])c1` [Example 109, N-(5-Chloro-thiophen-2-ylmethyl)-2-(3-nitro-phenoxy)-nicotinamide], the melting point was in the range of 115 to 117 °C.

`N#Cc1cccc(Oc2ncccc2C(=O)NCc2ccccc2Cl)c1` [Example 110, N-(2-Chloro-benzyl)-2-(3-cyano-phenoxy)-nicotinamide] had a melting point of 135 to 137 °C.

On to `N#Cc1cccc(Oc2ncccc2C(=O)NCc2ccc(Cl)s2)c1` [Example 111, N-(5-Chloro-thiophen-2-ylmethyl)-2-(3-cyano-phenoxy)-nicotinamide], for which the melting point lay within 145 to 147 °C.

Take `N#Cc1cccc(Oc2ncccc2C(=O)NCc2ccc3c(c2)CC(=O)N3)c1` [Example 112, 2-(3-Cyano-phenoxy)-N-(2-oxo-2,3-dihydro-1H-indol-5-ylmethyl)-nicotinamide]: the melting point lay within 197 to 199 °C.

In the case of `CC(C)(O)c1ccc(CNC(=O)c2cccnc2Oc2cccc(C#N)c2)cc1` [Example 113, 2-(3-Cyano-phenoxy)-N-[4-(1-hydroxy-1-methyl-ethyl)-benzyl]-nicotinamide], the melting point is 97 to 99 °C.

`CC(C)(O)c1ccc(CNC(=O)c2cccnc2Oc2cccc(C#N)c2)c(Cl)c1` [Example 116, N-[2-Chloro-4-(1-hydroxy-1-methyl-ethyl)-benzyl]-2-(3-cyano-phenoxy)-nicotinamide] had a melting point of 121 to 123 °C.

Take `CCc1n[nH]c2ccc(C(NC(=O)c3cccnc3Oc3cccc(C#N)c3)C3CCCCC3)cc12` (centres unmarked) [Example 117, 2-(3-Cyano-phenoxy)-N-(-cyclohexyl-3-ethyl-1H-indazol-5-ylmethyl)-nicotinamide]: the melting point was in the range of 56 to 58 °C.

`N#Cc1ccc(Oc2ncccc2C(=O)NCc2ccccc2Cl)cc1` [Example 119, N-(2-Chloro-benzyl)-2-(4-cyano-phenoxy)-nicotinamide] gave a melting point of 112 to 114 °C.

In turn, `CC(=O)Nc1ccc(CNC(=O)c2cccnc2Oc2ccc(F)cc2)cc1` [Example 124, N-(4-Acetylamino-benzyl)-2-(4-fluoro-phenoxy)-nicotinamide] had a melting point of 128 to 130 °C.

`CC(=O)Nc1cccc(Oc2ncccc2C(=O)NCc2ccc(C(C)(C)O)cc2)c1` [Example 126, 2(3-Acetylamino-phenoxy)-N-[4-(1-hydroxy-1-methyl-ethyl)-benzyl]-nicotinamide] showed a melting point of 155 to 157 °C.

Consider `CC(C)(C)C(=O)Oc1ccc(CNC(=O)c2cccnc2Oc2ccc(F)cc2)cc1` [Example 130, 2,2-Dimethyl-propionic acid 4-({[2-(4-fluoro-phenoxy)-pyridine-3-carbonyl]-amino}-methyl)-phenyl ester], for which the melting point was 91 to 93 °C.

The molecule `CS(=O)(=O)Nc1ccc(CNC(=O)c2cccnc2Oc2ccc(F)cc2)cc1` [Example 131, 2-(4-Fluoro-phenoxy)-N-(4-methanesulfonylamino-benzyl)-nicotinamide] returned a melting point of 107 to 109 °C.

In turn, `O=C(NCC(O)c1ccccc1)c1cccnc1Oc1cccc(Cl)c1` (centres unmarked) [Example 133, 2-(3-Chloro-phenoxy)-N-(2-hydroxy-2-phenyl-ethyl)-nicotinamide] gave a melting point of 118 to 119 °C.

For the molecule `O=C(Cc1ccccc1Cl)Nc1cccnc1Oc1ccc(F)cc1` [Example 136, 2-(2-Chloro-phenyl)-N-[2-(4-fluoro-phenoxy)-pyridin-3-yl]-acetamide], the melting point was 73 to 75 °C.

Consider `CC(=O)c1ccc(CC(=O)Nc2cccnc2Oc2ccc(F)cc2)cc1` [Example 137, 2-(4-Acetyl-phenyl)-N-[2-(4-fluoro-phenoxy)-pyridin-3-yl]-acetamide], for which the melting point was 118 to 120 °C.

On to `COc1ccccc1NC(=O)Nc1cccc(Oc2ncccc2C(=O)NCc2ccccc2Cl)c1` [Example 138, N-(2-Chloro-benzyl)-2-(3-[3-(2-methoxy-phenyl)-ureido]-phenoxy}-nicotinamide], for which the melting point fell in the range of 180 to 182 °C.

Consider `O=C(Nc1cccc(Oc2ncccc2C(=O)NCc2ccccc2Cl)c1)Nc1cccc2ccccc12` [Example 139, N-(2-Chloro-benzyl)-2-[3-(3-naphthalen-1-yl-ureido)-phenoxy]-nicotinamide], for which the melting point lay within 121 to 123 °C.

Molecule `Nc1cccc(Oc2ncccc2C(=O)NCc2ccccc2Cl)c1` [Example 144, 2-(3-Amino-phenoxy)-N-(2-chloro-benzyl)-nicotinamide] returned a melting point of 101 to 103 °C.

Regarding `CC(=O)c1ccc(CNC(=O)c2cccnc2Oc2cccnc2)s1` [Example 159, N-(5-Acetyl-thiophen-2-ylmethyl)-2-(pyridin-3-yloxy)-nicotinamide], the melting point fell in the range of 201 to 203 °C.

For the molecule `CC(O)c1ccc(CNC(=O)c2cccnc2Oc2cccnc2)s1` (centres unmarked) [Example 160, N-[5-(1-Hydroxy-ethyl)-thiophen-2-ylmethyl]-2-(pyridin-3yloxy)-nicotinamide], the melting point was in the range of 92 to 94 °C.
